In patent publication US20240366542A1, “S[…] SEROTONIN RECEPTORS” (ATAI Therapeutics, Inc., priority 2022, published 2024):

How the values were obtained:
Type in all cases: cell-based
5-HT2A receptor [1] = target: T1, 5-HT2A receptor (Homo sapiens, UniProt P28223); test: Calcium mobilization (Ca++ flux) assay, agonist mode, 5-HT2A; conditions: for 5-HT2A receptor, Ca++ Flux % activation @30 μM: 30 μM compound, relative to MAX control 0.1 μM serotonin; for EC50: agonist mode, FLIPR calcium mobilization
T1 sequence (P28223 whole entry): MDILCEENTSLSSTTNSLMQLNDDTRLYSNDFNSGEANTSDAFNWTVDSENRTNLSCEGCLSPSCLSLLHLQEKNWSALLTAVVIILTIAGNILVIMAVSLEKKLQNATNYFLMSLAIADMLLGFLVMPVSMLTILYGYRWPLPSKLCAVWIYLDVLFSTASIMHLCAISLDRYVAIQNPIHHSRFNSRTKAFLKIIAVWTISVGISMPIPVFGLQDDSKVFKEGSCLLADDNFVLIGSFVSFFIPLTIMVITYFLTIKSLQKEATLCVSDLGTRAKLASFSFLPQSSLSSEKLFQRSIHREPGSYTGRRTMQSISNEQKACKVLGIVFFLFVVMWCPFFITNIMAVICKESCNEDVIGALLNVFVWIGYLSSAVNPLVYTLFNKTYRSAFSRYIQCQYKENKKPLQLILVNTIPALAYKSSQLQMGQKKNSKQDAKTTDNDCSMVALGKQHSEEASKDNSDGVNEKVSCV
Experimental: (§1) The Calcium No-Wash^PLUS assay monitors the activation of a GPCR via Gq secondary messenger signaling in a live cell, non-imaging assay format. Calcium mobilization in PathHunter® cell lines or other cell lines stably expressing Gq-coupled GPCRs is monitored using a calcium-sensitive dye that is loaded into cells. GPCR activation by a compound result in the release of calcium from intracellular stores and an increase in dye fluorescence that is measured in real-time. Cell lines expressing the GPCR of interest were expanded from freezer stocks according to standard procedures. Cells were seeded in a total volume of 20 μL into black-walled, clear-bottom, Poly-D-lysine coated 384-well microplates and incubated at 37° C. for the appropriate time prior to testing. Assays were performed in 1×Dye Loading Buffer consisting of 1× Dye, 1× Additive A and 2.5 mM Probenecid in HBSS/20 mM Hepes. Probenicid was prepared fresh. Cells were loaded with dye prior to testing. Media was aspirated from cells and replaced with 20 μL Dye Loading Buffer. Cells were incubated for 30-60 minutes at 37° C. For agonist determination, cells were incubated with sample to induce response. After dye loading, cells were removed from the incubator and 10 μL HBSS/20 mM Hepes was added. 3× vehicle was included in the buffer when performing agonist dose curves to define the EC80 for subsequent antagonist assays. Cells were incubated for 30 minutes at room temperature in the dark to equilibrate plate temperature. Intermediate dilution of sample stocks was performed to generate 4× sample in assay buffer. Compound agonist activity was measured on a FLIPR Tetra (MDS). Calcium mobilization was monitored for 2 minutes and 10 μL 4× sample in HBSS/20 mM Hepes was added to the cells 5 seconds into the assay. Compound activity data was analyzed using CBIS data analysis suite (ChemInnovation, CA). For agonist mode assays, percentage activity is calculated using the following formula:
% Activity=100%×(mean RFU of test sample−mean RFU of vehicle control)/(mean MAX RFU control ligand−mean RFU of vehicle control).
In these studies, the MAX RFU was generated by using 0.1 μM serotonin for the calcium mobilization assay.

5-HT2A receptor [2] = target: T1, 5-HT2A receptor; test: PathHunter β-Arrestin assay, agonist mode, 5-HT2A
Experimental: The PathHunter® β-Arrestin assay monitors the activation of a GPCR in a homogenous, non-imaging assay format using a technology developed by DiscoverX called Enzyme Fragment Complementation (EFC) with β-galactosidase (β-Gal) as the functional reporter. […] EA is fused to β-Arrestin and PK is fused to the GPCR of interest. When the GPCR is activated and β-Arrestin is recruited to the receptor, ED and EA complementation occurs, restoring β-Gal activity which is measured using chemiluminescent PathHunter® Detection Reagents. PathHunter cell lines (DiscoveRx Eurofins) were expanded from freezer stocks according to standard procedures. Cells were seeded in a total volume of 20 μL into white walled, 384-well microplates and incubated at 37° C. for the appropriate time prior to testing. For agonist determination, cells were incubated with sample to induce response. Intermediate dilution of sample stocks was performed to generate 5× sample in assay buffer. 5 μL of 5× sample was added to cells and incubated at 37° C. or room temperature for 90 to 180 minutes. Vehicle concentration was 1%. β-Arrestin assay signal was generated through a single addition of 12.5 or 15 μL (50% v/v) of PathHunter Detection reagent cocktail, followed by a one-hour incubation at room temperature. Microplates were read following signal generation with a PerkinElmer Envision™ instrument for chemiluminescent signal detection. Compound activity was analyzed using CBIS data analysis suite (ChemInnovation, CA). For agonist mode assays, percentage activity was calculated using the following formula:
% Activity=100%×(mean RLU of test sample−mean RLU of vehicle control)/(mean MAX control ligand−mean RLU of vehicle control).
In these studies, the MAX control ligand response was generated using 1-10 μM serotonin.

5-HT2C receptor = target: T2, 5-HT2C receptor (Homo sapiens, UniProt P28335); test: Calcium mobilization (Ca++ flux) assay, agonist mode, 5-HT2C
T2 sequence (P28335 33-458): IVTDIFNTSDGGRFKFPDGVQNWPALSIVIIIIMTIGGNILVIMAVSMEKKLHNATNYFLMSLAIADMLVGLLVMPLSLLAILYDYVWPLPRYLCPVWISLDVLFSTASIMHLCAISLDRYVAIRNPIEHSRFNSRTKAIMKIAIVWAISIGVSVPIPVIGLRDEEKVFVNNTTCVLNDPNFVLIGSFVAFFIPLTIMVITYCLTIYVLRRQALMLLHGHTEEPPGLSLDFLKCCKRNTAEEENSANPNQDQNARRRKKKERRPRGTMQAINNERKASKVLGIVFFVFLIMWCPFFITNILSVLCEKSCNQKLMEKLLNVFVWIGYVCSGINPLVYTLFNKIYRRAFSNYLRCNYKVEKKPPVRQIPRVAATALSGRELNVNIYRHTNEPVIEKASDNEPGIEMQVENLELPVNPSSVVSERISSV
Experimental: as §1, with “Media was aspirated from cells and replaced with 20 μL Dye Loading Buffer. Cells were incubated for 30-60 minutes at 37° C. For agonist determination, cells were incubated with sample to induce response. After dye loading, cells were removed from the incubator and 10 μL HBSS/20 mM Hepes was added. 3× vehicle was included in the buffer when performing agonist dose curves to define the EC80 for subsequent antagonist assays. Cells were incubated for 30 minutes at room temperature in the dark to equilibrate plate temperature. Intermediate dilution of sample stocks was performed to generate 4× sample in assay buffer.” left out, “formula: […]” for “formula:”

5-HT2B receptor = 5-HT2B receptor (Homo sapiens, UniProt P41595); test: Calcium mobilization (Ca++ flux) assay, agonist mode, 5-HT2B
Chain of 5-HT2B receptor (P41595 whole entry): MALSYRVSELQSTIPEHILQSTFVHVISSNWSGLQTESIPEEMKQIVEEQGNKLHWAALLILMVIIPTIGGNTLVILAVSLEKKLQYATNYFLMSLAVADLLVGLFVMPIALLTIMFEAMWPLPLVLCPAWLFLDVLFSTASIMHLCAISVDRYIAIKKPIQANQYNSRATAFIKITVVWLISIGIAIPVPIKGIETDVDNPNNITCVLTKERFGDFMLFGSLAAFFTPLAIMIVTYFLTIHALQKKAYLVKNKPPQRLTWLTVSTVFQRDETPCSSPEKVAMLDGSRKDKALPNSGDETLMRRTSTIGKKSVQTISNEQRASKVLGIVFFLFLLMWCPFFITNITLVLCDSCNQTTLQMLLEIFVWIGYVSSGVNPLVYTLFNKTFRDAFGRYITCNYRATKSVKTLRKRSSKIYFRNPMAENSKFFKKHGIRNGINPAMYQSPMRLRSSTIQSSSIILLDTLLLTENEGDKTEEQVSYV
Experimental: as §1, with “Media was aspirated from cells and replaced with 20 μL Dye Loading Buffer. Cells were incubated for 30-60 minutes at 37° C. For agonist determination, cells were incubated with sample to induce response. After dye loading, cells were removed from the incubator and 10 μL HBSS/20 mM Hepes was added. 3× vehicle was included in the buffer when performing agonist dose curves to define the EC80 for subsequent antagonist assays. Cells were incubated for 30 minutes at room temperature in the dark to equilibrate plate temperature. Intermediate dilution of sample stocks was performed to generate 4× sample in assay buffer.” left out, “formula: […]” for “formula:”

Row | Compound | 5-HT2A receptor, Ca++ Flux % activation @30 μM (5-HT2A receptor [1]) | EC50 (5-HT2A receptor [2]) [nM] | EC50 (5-HT2A receptor [1]) [nM] | EC50 (5-HT2C receptor) [nM] | EC50 (5-HT2B receptor) [nM]
1 | COc1cc(S(C)(=N)=O)c(OC)cc1CCNCc1ccccc1O (stereo not shown) [Compound 6, (4-(2-((2-hydroxybenzyl)amino)ethyl)-2,5-dimethoxyphenyl)(imino)(methyl)-λ^6-sulfanone] | NA/ 82% | – | – | – | –
2 | COc1cc(S(C)(=N)=O)c(OC)cc1CCNCc1cc(C)cc(Cl)c1 (single isomer, unassigned) [Compound 2, (4-(2-((3-chloro-5-methylbenzyl)amino)ethyl)-2,5-dimethoxyphenyl)(imino)(methyl)-λ^6-sulfanone] | NA/57% | – | – | – | –
3 | COc1cc(S(C)(=N)=O)c(OC)cc1CCNCc1cc(C)cc(Cl)c1 (single isomer, unassigned) [Compound 3, (4-(2-((3-chloro-5-methylbenzyl)amino)ethyl)-2,5-dimethoxyphenyl)(imino)(methyl)-λ^6-sulfanone] | 78% | 13.6 | 2.4 | 1490 | > 1000
4 | COc1cc(S(C)(=N)=O)c(OC)cc1CCNCc1cc(C)cc(Cl)c1 (stereo not shown) [Compound 1, (4-(2-((3-chloro-5-methylbenzyl)amino)ethyl)-2,5-dimethoxyphenyl)(imino)(methyl)-λ^6-sulfanone] | 102% | 25 | 4.1 | – | > 1000
5 | COc1cc(S(C)(=N)=O)c(OC)cc1CCNCc1ccccc1OC (stereo not shown) [Compound 5, (2,5-dimethoxy-4-(2-((2-methoxybenzyl)amino)ethyl)phenyl)(imino) (methyl)-λ^6-sulfanone] | 111% | 3.2 | 1.7 | 3.6 | –
6 | COc1cc(S(C)(=N)=O)c(OC)cc1CCNCc1cc(C)cc(Cl)n1 (stereo not shown) [Compound 4, (4-(2-(((6-chloro-4-methylpyridin-2-yl)methyl)amino)ethyl)-2,5-dimethoxyphenyl)(imino)(methyl)-λ^6-sulfanone] | NA/67% | – | – | – | –
